Experimental data from patent US20120239131A1, “METHODS AND APPARATUS FOR TREATMENT OF ANEURYSMAL TISSUE” (Medtronic Vascular, Inc., priority 2011, published 2012).

Key:
[1] = molecular target: ACE (Homo sapiens, UniProt P12821); settings: in vitro; cited from earlier work
[2] = test system: Runx3; experiment: Aortic mural gene expression, RT-PCR (TLDA); type: in vivo, ApoE−/− mice; settings: fold change over ApoE−/− control; aorta, 28 days Ang II infusion
Method: (§1) ApoE−/− mice used in this study were divided into different pretreatment groups: 1) Fluvastatin-MF; 2) Doxycycline-MD; 3) Irbesartan-MI; 4) Telmisartan-MT; 5) Control (water) and fed medicated chow or medicated drinking water 1 week prior to pump implantation. AngII (1000 ng·kg^−1 of body weight·min^−1) was infused subcutaneously via Alzet mini-osmotic pumps for 28 days. All mice were maintained on the medicated chow (MI & MT) or medicated drinking water (MF & MD) treatments which were delivered daily for a total of 28 days following pump implantation.
(§2) In order to determine the effect of the various treatments on the progressive enlargement of the experimental AAAs the mice were followed with high frequency trans-abdominal ultrasound. Maximum aortic diameter was measured and recorded prior to pump implantation and then at 3, 7, 14, 21, and 28 days. All mice were sacrificed 28 days after pump implantation. Aortae were harvested and subjected to either histological analysis (Elastic Masson trichome, MAC2, CD31 and TUNEL staining) and analysis of mural gene expression. Plasma drug concentrations of experimental compounds were quantified on the day of sacrifice using high performance liquid chromatography (HPLC).
(§3) Total RNA was extracted from homogenized aortas using the Qiazol lysis reagent and RNeasy Lipid Tissue Mini kit. DNAse treatment was included in the procedure. RNA concentration was determined utilizing the Quant iT RNA assay kit. Complimentary deoxyribonucleic acid (cDNA) was synthesized from 1 μg RNA using High reverse cDNA transcription kit. Briefly the reaction tubes containing RNA, reverse transcriptase, buffer, RNAse inhibitor, and nuclease free water were incubated at 25° C. for 10 minutes to allow annealing. Reverse transcription was performed at 37° C. for 120 min, followed by a 5 sec incubation at 85° C. to inactivate the reverse transcriptase enzyme. The cDNA samples were cooled at 4° C. and stored at −80° C. until further use.
(§4) Real time PCR was performed using a 384-well Taqman low density array (TLDA) card. Each sample specific PCR mix contained 50 ng of total RNA converted to cDNA. The PCR reaction for Taqman assays contained 50 μl Master Mix (Taqman Universal PCR Master Mix,) and 50 ul of cDNA and RNAase free water. Assays were performed to include appropriate controls (no template control). The RT-PCR protocol included an initial step of 50° C. (2 minutes) […], denaturation by a hot start at 95° C. for 10 min, followed by 40 cycles of a 2 step program (denaturation at 95° C. for 15 secs for primer annealing/extension at 60° C. for 1 min). Fluorescence data was collected at 60° C. Fluorescence was quantified with ABI PRISM 7900HT Sequence Detection System. To verify amplification of a specific target cDNA, data generated was analyzed using SDS 2.2.3 software (Sequence Detection System Software, Applied Biosystems). For all amplification plots, the baseline data were set with the automatic CT function available with SDS 2.2.3 calculating the optimal baseline range and threshold value by using the AutoCT algorithm. According to the manufacturer's instruction, a CT value of ≧39 corresponds to nonspecific amplification marking the limits of detection. For endogenous control GAPDH was normalized to B2M. For relative quantification (RQ), pooled ApoE−/− control was used as the calibrator (with expression equal to 1).

[3] = test system: MMP-12; experiment: Aortic mural gene expression, RT-PCR (TLDA); type: in vivo, ApoE−/− mice; settings: fold change over ApoE−/− control; aorta, 28 days Ang II infusion
Method: as §1, §2, §3, §4

[4] = test system: IL-7; experiment: Aortic mural gene expression, RT-PCR (TLDA); type: in vivo, ApoE−/− mice; settings: fold change over ApoE−/− control; aorta, 28 days Ang II infusion
Method: as §1, §2, §3, §4

[5] = test system: Tgfβ1; experiment: Aortic mural gene expression, RT-PCR (TLDA); type: in vivo, ApoE−/− mice; settings: fold change over ApoE−/− control; aorta, 28 days Ang II infusion
Method: as §1, §2, §3, §4

[6] = test system: TNF-α; experiment: Aortic mural gene expression, RT-PCR (TLDA); type: in vivo, ApoE−/− mice; settings: fold change over ApoE−/− control; aorta, 28 days Ang II infusion
Method: as §1, §2, §3, §4

[7] = test system: Cybb; experiment: Aortic mural gene expression, RT-PCR (TLDA); type: in vivo, ApoE−/− mice; settings: fold change over ApoE−/− control; aorta, 28 days Ang II infusion
Method: as §1, §2, §3, §4

[8] = test system: CXCR4; experiment: Aortic mural gene expression, RT-PCR (TLDA); type: in vivo, ApoE−/− mice; settings: fold change over ApoE−/− control; aorta, 28 days Ang II infusion
Method: as §1, §2, §3, §4

[9] = test system: Osteopontin; experiment: Aortic mural gene expression, RT-PCR (TLDA); type: in vivo, ApoE−/− mice; settings: fold change over ApoE−/− control; aorta, 28 days Ang II infusion
Method: as §1, §2, §3, §4

[10] = test system: Cathepsin S; experiment: Aortic mural gene expression, RT-PCR (TLDA); type: in vivo, ApoE−/− mice; settings: fold change over ApoE−/− control; aorta, 28 days Ang II infusion
Method: as §1, §2, §3, §4

[11] = test system: ITGAL; experiment: Aortic mural gene expression, RT-PCR (TLDA); type: in vivo, ApoE−/− mice; settings: fold change over ApoE−/− control; aorta, 28 days Ang II infusion
Method: as §1, §2, §3, §4

[12] = test system: CCL2; experiment: Aortic mural gene expression, RT-PCR (TLDA); type: in vivo, ApoE−/− mice; settings: fold change over ApoE−/− control; aorta, 28 days Ang II infusion
Method: as §1, §2, §3, §4

[13] = test system: LOX; experiment: Aortic mural gene expression, RT-PCR (TLDA); type: in vivo, ApoE−/− mice; settings: fold change over ApoE−/− control; aorta, 28 days Ang II infusion
Method: as §1, §2, §3, §4

[14] = test system: TIMP2; experiment: Aortic mural gene expression, RT-PCR (TLDA); type: in vivo, ApoE−/− mice; settings: fold change over ApoE−/− control; aorta, 28 days Ang II infusion
Method: as §1, §2, §3, §4

[15] = test system: CCR5; experiment: Aortic mural gene expression, RT-PCR (TLDA); type: in vivo, ApoE−/− mice; settings: fold change over ApoE−/− control; aorta, 28 days Ang II infusion
Method: as §1, §2, §3, §4

[16] = test system: Fibronectin -1; experiment: Aortic mural gene expression, RT-PCR (TLDA); type: in vivo, ApoE−/− mice; settings: fold change over ApoE−/− control; aorta, 28 days Ang II infusion
Method: as §1, §2, §3, §4

[17] = test system: HMOX 1; experiment: Aortic mural gene expression, RT-PCR (TLDA); type: in vivo, ApoE−/− mice; settings: fold change over ApoE−/− control; aorta, 28 days Ang II infusion
Method: as §1, §2, §3, §4

[18] = test system: MMP-8; experiment: Aortic mural gene expression, RT-PCR (TLDA); type: in vivo, ApoE−/− mice; settings: fold change over ApoE−/− control; aorta, 28 days Ang II infusion
Method: as §1, §2, §3, §4

[19] = test system: Rac2; experiment: Aortic mural gene expression, RT-PCR (TLDA); type: in vivo, ApoE−/− mice; settings: fold change over ApoE−/− control; aorta, 28 days Ang II infusion
Method: as §1, §2, §3, §4

[20] = test system: MAPK8; experiment: Aortic mural gene expression, RT-PCR (TLDA); type: in vivo, ApoE−/− mice; settings: fold change over ApoE−/− control; aorta, 28 days Ang II infusion
Method: as §1, §2, §3, §4

[21] = test system: Cathepsin B; experiment: Aortic mural gene expression, RT-PCR (TLDA); type: in vivo, ApoE−/− mice; settings: fold change over ApoE−/− control; aorta, 28 days Ang II infusion
Method: as §1, §2, §3, §4

[22] = test system: CCR2; experiment: Aortic mural gene expression, RT-PCR (TLDA); type: in vivo, ApoE−/− mice; settings: fold change over ApoE−/− control; aorta, 28 days Ang II infusion
Method: as §1, §2, §3, §4

[23] = test system: Vav1; experiment: Aortic mural gene expression, RT-PCR (TLDA); type: in vivo, ApoE−/− mice; settings: fold change over ApoE−/− control; aorta, 28 days Ang II infusion
Method: as §1, §2, §3, §4

[24] = test system: ITGB2; experiment: Aortic mural gene expression, RT-PCR (TLDA); type: in vivo, ApoE−/− mice; settings: fold change over ApoE−/− control; aorta, 28 days Ang II infusion
Method: as §1, §2, §3, §4

[25] = test system: NFKb1; experiment: Aortic mural gene expression, RT-PCR (TLDA); type: in vivo, ApoE−/− mice; settings: fold change over ApoE−/− control; aorta, 28 days Ang II infusion
Method: (§5) Total RNA was extracted from homogenized aortas using the Qiazol lysis reagent and RNeasy Lipid Tissue Mini kit. DNAse treatment was included in the procedure. RNA concentration was determined utilizing the Quant iT RNA assay kit. Complimentary deoxyribonucleic acid (cDNA) was synthesized from 1 μg RNA using High reverse cDNA transcription kit. Briefly the reaction tubes containing RNA, reverse transcriptase, buffer, RNAse inhibitor, and nuclease free water were incubated at 25° C. for 10 minutes to allow annealing. […] The cDNA samples were cooled at 4° C. and stored at −80° C. until further use.
(§6) Real time PCR was performed using a 384-well Taqman low density array (TLDA) card. Each sample specific PCR mix contained 50 ng of total RNA converted to cDNA. The PCR reaction for Taqman assays contained 50 μl Master Mix (Taqman Universal PCR Master Mix,) and 50 ul of cDNA and RNAase free water. Assays were performed to include appropriate controls (no template control). The RT-PCR protocol included an initial step of 50° C. […] Fluorescence data was collected at 60° C. Fluorescence was quantified with ABI PRISM 7900HT Sequence Detection System. To verify amplification of a specific target cDNA, data generated was analyzed using SDS 2.2.3 software (Sequence Detection System Software, Applied Biosystems). […] For relative quantification (RQ), pooled ApoE−/− control was used as the calibrator (with expression equal to 1).

[26] = test system: CSF1; experiment: Aortic mural gene expression, RT-PCR (TLDA); type: in vivo, ApoE−/− mice; settings: fold change over ApoE−/− control; aorta, 28 days Ang II infusion
Method: as §5, §6

[27] = test system: genes involved in the pathophysiology of AAA; experiment: Drug inhibition effect on differentially expressed genes, overall; type: in vivo, ApoE−/− mice; settings: sum of heat map grades over 25 genes; ApoE−/− + Ang II group scored 55
Method: as §1, §2, §3, §4

[28] = cited from earlier work

Sequence of ACE (P12821 30-1306, species assumed): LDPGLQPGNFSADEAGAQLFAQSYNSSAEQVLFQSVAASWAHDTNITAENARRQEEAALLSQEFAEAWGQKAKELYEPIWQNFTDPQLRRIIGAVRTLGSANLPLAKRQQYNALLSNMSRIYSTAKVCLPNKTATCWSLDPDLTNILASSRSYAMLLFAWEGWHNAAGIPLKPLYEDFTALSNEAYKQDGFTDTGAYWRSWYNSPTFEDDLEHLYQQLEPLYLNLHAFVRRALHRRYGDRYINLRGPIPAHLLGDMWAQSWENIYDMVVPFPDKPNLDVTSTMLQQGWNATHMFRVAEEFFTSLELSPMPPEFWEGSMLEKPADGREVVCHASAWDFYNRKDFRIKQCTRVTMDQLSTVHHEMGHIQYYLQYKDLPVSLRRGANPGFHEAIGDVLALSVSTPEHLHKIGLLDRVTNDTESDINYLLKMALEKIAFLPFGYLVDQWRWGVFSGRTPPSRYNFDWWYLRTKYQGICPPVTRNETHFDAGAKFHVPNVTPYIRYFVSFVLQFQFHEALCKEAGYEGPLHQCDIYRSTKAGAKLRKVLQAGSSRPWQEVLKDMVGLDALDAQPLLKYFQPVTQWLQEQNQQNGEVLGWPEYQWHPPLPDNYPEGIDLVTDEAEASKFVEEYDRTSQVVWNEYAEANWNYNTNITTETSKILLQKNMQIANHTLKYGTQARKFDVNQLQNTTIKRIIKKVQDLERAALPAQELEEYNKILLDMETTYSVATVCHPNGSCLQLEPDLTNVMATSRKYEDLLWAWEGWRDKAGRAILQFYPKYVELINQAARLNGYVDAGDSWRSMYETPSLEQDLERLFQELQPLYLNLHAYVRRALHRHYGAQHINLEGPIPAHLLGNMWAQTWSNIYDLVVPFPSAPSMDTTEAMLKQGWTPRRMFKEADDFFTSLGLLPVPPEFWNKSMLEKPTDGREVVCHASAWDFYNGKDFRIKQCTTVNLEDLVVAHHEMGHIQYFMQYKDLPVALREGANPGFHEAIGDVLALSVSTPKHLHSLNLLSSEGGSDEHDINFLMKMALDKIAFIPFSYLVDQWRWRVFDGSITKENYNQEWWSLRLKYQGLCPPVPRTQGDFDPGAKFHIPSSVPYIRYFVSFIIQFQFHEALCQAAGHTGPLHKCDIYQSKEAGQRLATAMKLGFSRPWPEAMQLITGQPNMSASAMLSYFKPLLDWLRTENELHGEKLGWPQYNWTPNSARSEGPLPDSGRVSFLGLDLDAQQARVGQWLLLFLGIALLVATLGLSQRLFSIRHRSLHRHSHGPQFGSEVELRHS

With CCOC(=O)[C@H](CCc1ccccc1)N[C@@H](C)C(=O)N1CCC[C@H]1C(=O)O [enalapril] as the compound, how does the “ACE inhibitor potency (in words)” value [1] read?
Its value is “not highly active”.

Which Runx3 expression [2] does the source give for C[C@H]1c2cccc(O)c2C(=O)C2=C(O)[C@]3(O)C(=O)C(C(N)=O)=C(O)[C@@H](N(C)C)[C@@H]3[C@@H](O)[C@@H]21 [Doxycycline] here?
The Runx3 expression was “+++ (3.1 to 10 = +++)”.

What about the MMP-12 expression [3] of the same compound?
Its MMP-12 expression is “++++ (>10.1 = ++++)”.

And the IL-7 expression [4]?
Its IL-7 expression is “− (0 to 1 = −)”.

What about the Tgfβ1 expression [5] of the same compound?
The Tgfβ1 expression was “+++ (3.1 to 10 = +++)”.

What about the TNF-α expression [6] of the same compound?
The TNF-α expression was “++ (1.51 to 3 = ++)”.

What about the Cybb expression [7] of the same compound?
Its Cybb expression is “+++ (3.1 to 10 = +++)”.

And the CXCR4 expression [8]?
Its CXCR4 expression is “++++ (>10.1 = ++++)”.

And the Osteopontin expression [9]?
The Osteopontin expression was “++++ (>10.1 = ++++)”.

What about the “Cathepsin S expression” value [10] of the same compound?
Its value is “+++ (3.1 to 10 = +++)”.

What about the ITGAL expression [11] of the same compound?
The ITGAL expression was “+++ (3.1 to 10 = +++)”.

What about the CCL2 expression [12] of the same compound?
Its CCL2 expression is “+ (1.1 to 1.5 = +)”.

What about the LOX expression [13] of the same compound?
The LOX expression was “− (0 to 1 = −)”.

What about the TIMP2 expression [14] of the same compound?
The TIMP2 expression was “− (0 to 1 = −)”.

And the CCR5 expression [15]?
The CCR5 expression was “+++ (3.1 to 10 = +++)”.

And the “Fibronectin -1 expression” value [16]?
The value was “− (0 to 1 = −)”.

And the “HMOX 1 expression” value [17]?
Its value is “++++ (>10.1 = ++++)”.

What about the MMP-8 expression [18] of the same compound?
The MMP-8 expression was “++++ (>10.1 = ++++)”.

What about the Rac2 expression [19] of the same compound?
The Rac2 expression was “+++ (3.1 to 10 = +++)”.

And the MAPK8 expression [20]?
Its MAPK8 expression is “− (0 to 1 = −)”.

What about the “Cathepsin B expression” value [21] of the same compound?
The value was “++ (1.51 to 3 = ++)”.

What about the CCR2 expression [22] of the same compound?
Its CCR2 expression is “+++ (3.1 to 10 = +++)”.

And the Vav1 expression [23]?
Its Vav1 expression is “++ (1.51 to 3 = ++)”.

And the ITGB2 expression [24]?
Its ITGB2 expression is “++ (1.51 to 3 = ++)”.

And the NFKb1 expression [25]?
Its NFKb1 expression is “− (0 to 1 = −)”.

And the CSF1 expression [26]?
Its CSF1 expression is “− (0 to 1 = −)”.

What about the “Total Score” value [27] of the same compound?
Its value is 53.

With CCC(=O)O[C@@H](O[P@](=O)(CCCCc1ccccc1)CC(=O)N1C[C@H](C2CCCCC2)C[C@H]1C(=O)O)C(C)C [fosinopril] as the compound, how does the Route of clearance/elimination ([28]; in vivo) read?
Its Route of clearance/elimination is “balanced elimination by the liver and kidneys”.

Which results are given for NCCCC[C@H](N[C@@H](CCc1ccccc1)C(=O)O)C(=O)N1CCC[C@H]1C(=O)O [Lisinopril, lisinopril]?
ACE inhibitor potency (in words) [1]: slightly more potent ACE inhibitor than is enalaprilat; Time to peak concentrations in the plasma ([28]; after oral administration): about 7 hours

With C[C@H](CS)C(=O)N1CCC[C@H]1C(=O)O [Captopril, captopril] as the compound, how does the Bioavailability ([28]; given orally) read?
Its Bioavailability is “about 75%”.
